Test results published in patent US20260373497A1, “MOLECULAR MACHINES STIMULATE INTERCELLULAR CALCIUM WAVES AND CAUSE MUSCLE CONTRACTION” (William Marsh Rice University, priority 2022, published 2026).
“Also recorded” adds a separate entry of the source.

Experiments:
C2C12 myoblasts [1] = experiment: MM-induced calcium release in C2C12 cells (Fluo-4); format: cell-based, mouse; conditions: MM 1, 1 s instead of 500 ms
[2] = tested on: primary rat cardiomyocytes; experiment: Spiking, beating and contraction of primary cardiomyocytes after MM stimulation; format: cell-based
[3] = UV-Vis absorbance of motors in DMSO; format: physicochemical
Source text: The UV-Vis spectrum of each motor was also acquired in DMSO (FIG. 37D) to ensure that the difference in absorbance at 400 nm was not the cause of larger or smaller responses.

HeLa cells = experiment: MM-induced calcium responses in HeLa cells; format: cell-based; conditions: 400 nm, 250 ms, 3.2×10^2 W cm^−2
Source text: FIGS. 12A & 12B—ICW in HeLa cells after stimulation with MM 1 and light. (a) Confocal images of HeLa cells treated with MM 1 (blue) and Fluo-4 calcium tracking dye (green). The white circle in the bottom-left image depicts the area to which light stimulus was delivered. Scale bar is 50 μm and applies to all images. (b) Fluo-4 fluorescence traces of HeLa cells treated with MM 1 and stimulated with 250 ms pulse of 400 nm light delivered to a 5 μm diameter circular region of interest at 3.2×10^2 W cm^−2 stimulation power.
(§1) Cell Culture and Preparation of Cells for Microscopy: HEK293 cells were chosen as the principal model system due to their prevalence in electrophysiological interrogation. […] HEK293 cells, HeLa cells, and N2A cells were cultured in DMEM (10% FBS, 1% penicillin/streptomycin) and passaged at <90% confluence. […]
(§2) In Vitro Imaging and Stimulation: Cells were loaded in a Nikon A1-Rsi confocal system mounted on a widefield Ti-E fluorescence microscope. […] Laser stimulation for in vitro experiments was performed with a 400 nm photodiode laser (Coherent OBIS™ LX SF) operating in a fluorescence-recovery-after-photobleaching (FRAP) experiment mode, delivering up to 6.4×10^2 W cm^−2 at sample level. […] Fluo-4 fluorescence was collected for 30 s before and 2 min after stimulation. […]

N2A cells = experiment: MM-induced calcium responses in N2A cells; format: cell-based; conditions: 400 nm, 250 ms, 3.2×10^2 W cm^−2
Source text: FIGS. 11A & 11B—ICW in N2A cells after stimulation with MM 1 and light. (a) Confocal images of N2A cells treated with MM 1 (blue) and calcium tracking dye (Fluo-4; green). The white circle in the top-left image depicts the area to which stimulus was delivered. The scale bar is 50 μm and applies to all images. (b) Fluo-4 fluorescence traces of N2A cells treated with MM 1 and stimulated with 250 ms pulse of 400 nm light delivered to a 5 μm diameter circular region of interest at 3.2×10^2 W cm^−2 stimulation power.
as §1, §2

C2C12 myoblasts [4] = experiment: MM-induced calcium release in C2C12 cells (Fluo-4); format: cell-based, mouse; conditions: for Calcium release in C2C12 myoblasts: light for 500 ms, MM 1 8 μM
Source text: FIGS. 36A-36D—MMs cause intracellular calcium waves in C2C12 myoblasts, a) MM 1 (unidirectional, ~3 MHz) structure showing rotor and stator. b) Rotation cycle of a MM. c) Confocal microscope images of C2C12 myoblasts with MM and labeled with Fluo-4. Stimulated areas are indicated by the red arrows immediately before stimulation and 10 s after stimulation. Scale bar=30 μm. d) Average normalized fluorescence intensity trace of stimulated C2C12 cells myoblasts treated with either DMSO (n=6) or MM 1 (n=7) and stimulated with 400-nm laser light for 500 ms. Laser stimulation is shown by the cyan line.
Fluo-4 is an intracellular calcium dye that fluoresces green when binding to calcium and is commonly used to observe intracellular calcium spikes in many cell types.
C2C12 cells will undergo differentiation from myoblasts to multinucleated myotubes when allowed to grow to confluence. This process occurs over the course of several days and can be sped up by replacing normal growth media with low serum differentiation media (Jang et al., 2022). The responsiveness of C2C12 cells to MM stimulation changes was tracked as they went through the process of growth and differentiation (FIG. 39). When plated on the first day, the cells are in low confluency, and show clear morphology of myoblasts. The cells reach around 100% confluency on day 4 (FIG. 39A), at which point they begin to differentiate to form the myotubes. They show lowest uptake of Fluo-4 and nearly no responses. After about 9 days of growth in regular growth media, myotubes begin to form, which have a fibrous, striated and multinucleated appearance, and the uptake of Fluo-4 could be observed again.

SMILES | Calcium release at longer stimulation (C2C12 myoblasts [1]) | Contraction / beating of cardiomyocytes ([2]; 400 nm, 250 ms, 5.1×10^2 W cm^−2) | Firing rate of cardiomyocytes ([2]; MM 1 + light in presence of U-73 10 μM, P<0.0001) | Spiking activity of cardiomyocytes ([2]; MM 1 + light, absence of extracellular calcium) | Firing rate of cardiomyocytes ([2]; MM 1 + light, calcium-containing medium) [spikes min^−1 cell^−1] | Absorbance at 400 nm [3] | Calcium responses induced by MM 1 actuation (HeLa cells) | Calcium responses induced by MM 1 actuation (N2A cells) | Calcium release with scavenger combination (C2C12 myoblasts [4]; MM 1 + light, with thiourea-containing scavenger combination (1× and 0.2×)) | Responsiveness to MM stimulation during differentiation (C2C12 myoblasts [4]; MM 1, day 1 to day 3) | Responsiveness to MM stimulation during differentiation (C2C12 myoblasts [4]; MM 1, day 4 to day 8) | Responsiveness to MM stimulation during differentiation (C2C12 myoblasts [4]; MM 1, day 9) | Calcium release at lower laser power (C2C12 myoblasts [4]; MM 1, lower laser powers) | Calcium release in C2C12 myoblasts (C2C12 myoblasts [4]) | Calcium release at 3 times higher concentration (C2C12 myoblasts [4]; MM 3, 3×)
CC1Cc2ccc3ccccc3c2C1=C1c2ccccc2Sc2cc(NCCN(C)C)ccc21 (centres unmarked) [MM 1] | larger calcium release | local contraction in the stimulated cell; also recorded: periodic beating in the stimulated cell and surrounding cell | ~ 0.8 spikes min^−1 cell^−1 | did not exhibit any spiking activity | 5.1 | nearly identical absorbances at 400 nm | also observed | also observed | without changing the magnitude of calcium release | slight decrease of the responsivity from day 1 to day 3 | lose their responsiveness to MM stimulation | increase in responsiveness to MM stimulation | lower calcium release | robust intracellular calcium release; also recorded: calcium transients several times larger in magnitude than MM 2 | –
CC1Cc2cc(NCCN(C)C)c3ccccc3c2C1=C1c2ccccc2-c2ccccc21 (centres unmarked) [MM 3] | – | – | – | – | – | much smaller absorbance | – | – | – | – | – | – | – | did not induce any calcium release | no measurable increase in calcium release
